These results are taken from US20260356820A1, “Pyrrolidine and Imidazolidine Based DNA Polymerase Theta Inhibitors and Use Thereof” (Thomas Jefferson University, priority 2022, published 2026).

The first experiment has as its target T1, human Polq polymerase domain (Homo sapiens, UniProt O75417).
T1 sequence (O75417 1792-2590): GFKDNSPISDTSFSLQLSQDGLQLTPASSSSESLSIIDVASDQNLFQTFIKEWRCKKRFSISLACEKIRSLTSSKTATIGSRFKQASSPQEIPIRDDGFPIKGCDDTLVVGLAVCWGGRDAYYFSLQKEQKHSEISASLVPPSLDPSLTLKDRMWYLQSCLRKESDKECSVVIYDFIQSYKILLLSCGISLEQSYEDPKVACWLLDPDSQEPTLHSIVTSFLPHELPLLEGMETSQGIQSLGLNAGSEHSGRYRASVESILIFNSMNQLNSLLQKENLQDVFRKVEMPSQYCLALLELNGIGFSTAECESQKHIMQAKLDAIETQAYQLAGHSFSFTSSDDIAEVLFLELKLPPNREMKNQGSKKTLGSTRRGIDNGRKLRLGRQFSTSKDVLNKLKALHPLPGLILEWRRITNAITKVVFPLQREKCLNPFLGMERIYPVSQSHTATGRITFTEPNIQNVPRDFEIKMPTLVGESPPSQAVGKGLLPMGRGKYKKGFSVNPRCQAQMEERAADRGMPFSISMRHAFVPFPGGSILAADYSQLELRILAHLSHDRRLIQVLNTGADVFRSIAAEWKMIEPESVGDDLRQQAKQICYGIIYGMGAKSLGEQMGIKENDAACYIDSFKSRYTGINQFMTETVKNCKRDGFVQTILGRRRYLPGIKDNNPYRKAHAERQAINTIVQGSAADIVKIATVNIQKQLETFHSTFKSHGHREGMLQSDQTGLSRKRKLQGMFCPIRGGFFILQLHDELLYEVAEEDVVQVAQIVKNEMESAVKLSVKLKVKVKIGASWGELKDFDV
Briefly: Cy5 fluorescence assay of Polq polymerase domain inhibition. The class given is biochemical.
Settings: not given
The method, then:
The following Cy5 fluorescence assay was used to measure the ability of compounds to inhibit Polq polymerase domain in vitro. The fluorescent based assay was performed as follows: 60 nM of the pre-annealed primer-template containing a 5′ Cy5 fluorophore conjugated template strand (SEQ ID NO:3: 5′-/5Cy5/[…]-3′), a downstream complementary oligo conjugated with a 3′ Blackhole quencher (SEQ ID NO:4: 5′-CTAAGCTCACAGTG/3IAbRQSp/-3′) and a primer strand (SEQ ID NO:5: 5′-CTGTCCTGCATGATG-3′) was mixed with 50 uM 2′-deoxyribonucleoside triphosphates (dNTPs), 0.1 mg/mL Bovine serum albumin (BSA), 0.01% NP-40, 10% glycerol, 1 mM dithiothreitol (DTT), 10 mM MgCl2, 25 mM TrisHCl pH 7.8 in the presence of 2.5% DMSO with or without various concentrations (7-point dilution series) of Polq small molecule inhibitors represented by Formula I at 37 °C in a volume of 40 μL.
In the case of `CN(C(=O)Oc1c(N2CCN(CCN3CCOCC3)C2=O)cc(C(F)(F)F)cc1C(F)(F)F)c1ccc(F)cc1` [Example 1, 2-(3-(2-morpholinoethyl)-2-oxoimidazolidin-1-yl)-4,6-bis(trifluoromethyl)phenyl (4-fluorophenyl)(methyl)carbamate], the IC50 worked out at 12 nM.
Still for that read-out and setting: as for `CC(=O)N1CCN(CCN2CCN(c3cc(C(F)(F)F)cc(C(F)(F)F)c3OC(=O)N(C)c3ccc(F)cc3)C2=O)CC1` [Example 2, 2-(3-(2-(4-acetylpiperazin-1-yl)ethyl)-2-oxoimidazolidin-1-yl)-4,6-bis(trifluoromethyl)phenyl (4-fluorophenyl)(methyl)carbamate], the figure is 4.5 nM; as for `CN(C(=O)Oc1c(N2CCN(CCN3CCC(C#N)CC3)C2=O)cc(C(F)(F)F)cc1C(F)(F)F)c1ccc(F)cc1` [Example 3, 2-(3-(2-(4-cyanopiperidin-1-yl)ethyl)-2-oxoimidazolidin-1-yl)-4,6-bis(trifluoromethyl)phenyl (4-fluorophenyl)(methyl)carbamate], 6 nM; as for `CN(C(=O)Oc1c(N2CCNC2=O)cc(C(F)(F)F)cc1C(F)(F)F)c1ccc(F)cc1` [Example 4, 2,4-bis(trifluoromethyl)-6-(2-oxoimidazolidin-1-yl)phenyl (4-fluorophenyl)(methyl)carbamate], 3.4 nM.
`CN(C(=O)Oc1c(N2CCNC2=O)cc(C(F)(F)F)cc1C(F)(F)F)c1ccc(F)c(Cl)c1F` [Example 7, 2,4-bis(trifluoromethyl)-6-(2-oxoimidazolidin-1-yl)phenyl (3-chloro-2,4-difluorophenyl)(methyl)carbamate] returned a concentration for half-maximal inhibition (IC50) of 4 nM.
`CN1CCN(c2cc(C(F)(F)F)cc(C(F)(F)F)c2OC(=O)N(C)c2ccc(F)c(Cl)c2F)C1=O` [Example 8, 2,4-bis(trifluoromethyl)-6-(3-methyl-2-oxoimidazolidin-1-yl)phenyl (3-chloro-2,4-difluorophenyl)(methyl)carbamate] yielded an IC50 of 3.4 nM.
Same read-out and setting: to `CN(C(=O)Oc1c(N2CCNC2=O)cc(C(F)(F)F)cc1C(F)(F)F)c1cc(Cl)c(F)cc1F` [Example 9, 2,4-bis(trifluoromethyl)-6-(2-oxoimidazolidin-1-yl)phenyl (5-chloro-2,4-difluorophenyl)(methyl)carbamate] belongs 21 nM; to `CN(C(=O)Oc1c(N2CCCC2=O)cc(C(F)(F)F)cc1C(F)(F)F)c1ccc(F)cc1` [Example 10, 2,4-bis(trifluoromethyl)-6-(2-oxopyrrolidin-1-yl)phenyl (4-fluorophenyl)(methyl)carbamate], 21 nM; to `Cc1cc(C(F)(F)F)cc(N2C[C@H](O)CC2=O)c1OC(=O)N(C)c1ccc(F)cc1` [Example 12, (R)-2-(4-hydroxy-2-oxopyrrolidin-1-yl)-6-methyl-4-(trifluoromethyl)phenyl (4-fluorophenyl)(methyl)carbamate], 4.4 nM.
Same read-out and setting: as for `Cc1cc(C(F)(F)F)cc(N2CCNC2=O)c1OC(=O)N(C)c1ccc(F)cc1` [Example 13, 2-methyl-6-(2-oxoimidazolidin-1-yl)-4-(trifluoromethyl)phenyl(4-fluorophenyl)(methyl)carbamate], the figure is 29 nM; as for `Cc1cc(C(F)(F)F)cc(N2CCNC2=O)c1OC(=O)N(C)c1ccc(F)c(Cl)c1` [Example 14, 2-methyl-6-(2-oxoimidazolidin-1-yl)-4-(trifluoromethyl)phenyl (3-chloro-4-fluorophenyl)(methyl)carbamate], 45 nM; as for `CN(C(=O)Oc1c(N2C(=O)NC(O)C2O)cc(C(F)(F)F)cc1C(F)(F)F)c1ccc(F)cc1` (centres unmarked) [Example 16, 2-(4,5-dihydroxy-2-oxoimidazolidin-1-yl)-4,6-bis(trifluoromethyl)phenyl N-(4-fluorophenyl)-N-methylcarbamate], 5.4 nM.
`C[C@@H]1CCC(=O)N1c1cc(C(F)(F)F)cc(C(F)(F)F)c1OC(=O)N(C)c1ccc(F)cc1` [Example 17, 2-[(2R)-2-methyl-5-oxopyrrolidin-1-yl]-4,6-bis(trifluoromethyl)phenyl N-(4-fluorophenyl)-N-methylcarbamate] yielded an IC50 of 1000 nM.
Take `CN(C(=O)Oc1c(N2CC(C(F)(F)F)NC2=O)cc(C(F)(F)F)cc1C(F)(F)F)c1ccc(F)cc1` (centres unmarked) [Example 18, 2-(2-oxo-4-(trifluoromethyl)imidazolidin-1-yl)-4,6-bis(trifluoromethyl)phenyl (4-fluorophenyl)(methyl)carbamate]: inhibition was half-maximal at 22 nM (IC50).
Still for that read-out and setting: as for `CN(C(=O)Oc1c(N2CCN(CCOS(N)(=O)=O)C2=O)cc(C(F)(F)F)cc1C(F)(F)F)c1ccc(F)cc1` [Example 21, 2-{2-oxo-3-[2-(sulfamoyloxy)ethyl]imidazolidin-1-yl}-4,6-bis(trifluoromethyl)phenyl N-(4-fluorophenyl)-N-methylcarbamate], the figure is 1.9 nM; as for `CN(C(=O)Oc1c(N2CCN(CC3(O)CN(C(=O)OC(C)(C)C)C3)C2=O)cc(C(F)(F)F)cc1C(F)(F)F)c1ccc(F)cc1` [Example 23, tert-butyl 3-((3-(2-(((4-fluorophenyl)(methyl)carbamoyl)oxy)-3,5-bis(trifluoromethyl)phenyl)-2-oxoimidazolidin-1-yl)methyl)-3-hydroxyazetidine-1-carboxylate], 1.8 nM; as for `CN(C(=O)Oc1c(N2CCN(CC3CO3)C2=O)cc(C(F)(F)F)cc1C(F)(F)F)c1ccc(F)cc1` (centres unmarked) [Example 25, 2,4-bis(trifluoromethyl)-6-(3-((oxiran-2-yl)methyl)-2-oxoimidazolidin-1-yl)phenyl (4-fluorophenyl)(methyl)carbamate], 5.8 nM.

The same experiment, now with this note: 5 nM Polq polymerase domain (residues 1792-2590), 60 nM primer-template, 50 uM dNTPs, 37 °C, 18 min; read-out: IC50 (nM) Polq.
As for `CN1CCN(c2cc(C(F)(F)F)cc(C(F)(F)F)c2OC(=O)N(C)c2ccc(F)cc2)C1=O` [Example 5, 2,4-bis(trifluoromethyl)-6-(3-methyl-2-oxoimidazolidin-1-yl)phenyl (4-fluorophenyl)(methyl)carbamate], the IC50 turned out to be 6 nM.
On the same count and under the same terms, to `CN(C(=O)Oc1c(N2CCCC2)cc(C(F)(F)F)cc1C(F)(F)F)c1ccc(F)cc1` [Example 11, 2,4-bis(trifluoromethyl)-6-(pyrrolidin-1-yl)phenyl 4-fluorophenylmethylcarbamate] belongs 15 nM.
The same measure, in the same setting: as for `Cc1cc(C(F)(F)F)cc(N2CCOC2=O)c1OC(=O)N(C)c1ccc(F)cc1` [Example 15, 4-(trifluoromethyl)-2-methyl-6-(2-oxooxazolidin-3-yl)phenyl 4-fluorophenylmethylcarbamate], the figure is 80 nM; as for `CN(C(=O)Oc1c(N2CC[C@H](O)C2=O)cc(C(F)(F)F)cc1C(F)(F)F)c1ccc(F)cc1` [Example 19, 2,4-bis(trifluoromethyl)-6-((S)-3-hydroxy-2-oxopyrrolidin-1-yl)phenyl 4-fluorophenylmethylcarbamate], 16 nM; as for `CC(O)CN1CCN(c2cc(C(F)(F)F)cc(C(F)(F)F)c2OC(=O)N(C)c2ccc(F)cc2)C1=O` (centres unmarked) [Example 20, 2,4-bis(trifluoromethyl)-6-(3-(2-hydroxypropyl)-2-oxoimidazolidin-1-yl)phenyl 4-fluorophenylmethylcarbamate], 2.4 nM.
Take `CN(C)CC(O)CN1CCN(c2cc(C(F)(F)F)cc(C(F)(F)F)c2OC(=O)N(C)c2ccc(F)cc2)C1=O` (centres unmarked) [Example 24, 2-(3-(3-(dimethylamino)-2-hydroxypropyl)-2-oxoimidazolidin-1-yl)-4,6-bis(trifluoromethyl)phenyl (4-fluorophenyl)(methyl)carbamate]: the IC50 turned out to be 6.7 nM.

A word on the IC50: it is the midpoint of a concentration-inhibition curve.
